Biological target: T1, fMet-Leu-Phe receptor (Homo sapiens, UniProt P21462)
T1 sequence (P21462 whole entry): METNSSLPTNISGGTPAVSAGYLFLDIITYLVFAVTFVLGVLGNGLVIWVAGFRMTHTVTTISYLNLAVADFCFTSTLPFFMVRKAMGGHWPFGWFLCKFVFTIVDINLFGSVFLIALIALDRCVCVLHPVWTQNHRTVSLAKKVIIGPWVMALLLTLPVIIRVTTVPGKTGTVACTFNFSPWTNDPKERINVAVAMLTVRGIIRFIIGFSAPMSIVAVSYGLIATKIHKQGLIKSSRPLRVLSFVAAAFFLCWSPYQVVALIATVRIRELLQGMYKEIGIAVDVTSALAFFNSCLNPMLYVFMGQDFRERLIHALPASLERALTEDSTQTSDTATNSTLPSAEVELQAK
Experiment: FPR ligands, dose response (AID 519)

Compound `COc1cccc(C(=O)C2C(=O)C(=O)N(Cc3cccnc3)C2c2ccco2)c1` (stereo not given) [(4Z)-5-(2-furanyl)-4-[hydroxy-(3-methoxyphenyl)methylidene]-1-(3-pyridinylmethyl)pyrrolidine-2,3-dione] has an IC50 greater than 66.7 µM.
Compound `COc1cccc(OC)c1C(=O)C(C#N)c1nc2ccccc2[nH]1` (stereo not given) [SMR000024183] has an IC50 greater than 66.7 µM.
Work on `O=C1C(=O)N(Cc2ccccc2)C(c2ccncc2)C1C(=O)c1ccco1` (stereo not given) [1-Benzyl-4-(furan-2-carbonyl)-3-hydroxy-5-pyridin-4-yl-1,5-dihydro-pyrrol-2-one] yielded an IC50 of 13.6 µM.
Work on `COc1cccc2cc(C(=O)C3C(=O)C(=O)N(Cc4ccco4)C3c3cccnc3)oc12` (stereo not given) [1-(2-furanylmethyl)-4-hydroxy-3-[(7-methoxy-2-benzofuranyl)-oxomethyl]-2-(3-pyridinyl)-2H-pyrrol-5-one] yielded an IC50 greater than 66.7 µM.
`C=CCOc1cccc(C2C(C(=O)c3ccco3)C(=O)C(=O)N2CCN2CCOCC2)c1` (stereo not given) [3-(furan-2-carbonyl)-4-hydroxy-1-(2-morpholin-4-ylethyl)-2-(3-prop-2-enoxyphenyl)-2H-pyrrol-5-one] showed an IC50 greater than 66.7 µM.
`CCOc1ccc(C(=O)C2C(=O)C(=O)N(CC3CCCO3)C2c2ccc(C)o2)cc1` (stereo not given) [(4Z)-4-[(4-ethoxyphenyl)-hydroxymethylidene]-5-(5-methyl-2-furanyl)-1-(2-oxolanylmethyl)pyrrolidine-2,3-dione] gave an IC50 of 21.1 µM.
Compound `COc1ccc(OC)c(C2C(C(=O)c3cc4ccccc4o3)C(=O)C(=O)N2c2cc(C)on2)c1` (stereo not given) [3-(1-benzofuran-2-carbonyl)-2-(2,5-dimethoxyphenyl)-4-hydroxy-1-(5-methyl-1,2-oxazol-3-yl)-2H-pyrrol-5-one] has an IC50 of 36.6 µM.
With `COc1ccc(C(=O)C2C(=O)C(=O)N(c3nc(C)c(C)s3)C2c2ccco2)cc1` (stereo not given) [(4Z)-1-(4,5-dimethyl-1,3-thiazol-2-yl)-5-(furan-2-yl)-4-[(4-methoxyphenyl)-oxidanyl-methylidene]pyrrolidine-2,3-dione] the IC50 was greater than 66.7 µM.
In the case of `O=C1C(=O)N(c2ncccn2)C(c2ccc(Cl)c(Cl)c2)C1C(=O)c1ccco1` (stereo not given) [2-(3,4-dichlorophenyl)-3-(furan-2-carbonyl)-4-hydroxy-1-pyrimidin-2-yl-2H-pyrrol-5-one], the IC50 is reported as greater than 66.7 µM.
`COc1ccc(CCN2C(=O)C(=O)C(C(=O)c3ccco3)C2c2cccs2)cc1OC` (stereo not given) [1-[2-(3,4-Dimethoxy-phenyl)-ethyl]-4-(furan-2-carbonyl)-3-hydroxy-5-thiophen-2-yl-1,5-dihydro-pyrrol-2-one] gave an IC50 of 19 µM.
`COCCCN1C(=O)C(=O)C(C(=O)c2ccccc2)C1c1ccc2c(c1)OCO2` (stereo not given) [(4E)-5-(1,3-benzodioxol-5-yl)-1-(3-methoxypropyl)-4-[oxidanyl(phenyl)methylidene]pyrrolidine-2,3-dione] gave an IC50 of 29.6 µM.
`Cc1ccc(C(=O)C2C(=O)C(=O)N(CC(C)O)C2c2ccc(N(C)C)cc2)cc1` (stereo not given) [(4E)-5-[4-(dimethylamino)phenyl]-1-(2-hydroxypropyl)-4-[hydroxy(p-tolyl)methylene]pyrrolidine-2,3-quinone] showed an IC50 greater than 66.7 µM.
Compound `COC(=O)c1[nH]c(C)c(C(=O)C2C(=O)C(=O)N(CCN3CCOCC3)C2c2cccs2)c1C` (stereo not given) has an IC50 of 5 µM.
With `COc1cc(C2C(C(=O)c3ccc4c(c3)CC(C)O4)C(=O)C(=O)N2CCCn2ccnc2)ccc1O` (stereo not given) [(4E)-1-(3-imidazol-1-ylpropyl)-5-(3-methoxy-4-oxidanyl-phenyl)-4-[(2-methyl-2,3-dihydro-1-benzofuran-5-yl)-oxidanyl-methylidene]pyrrolidine-2,3-dione] the IC50 was 57.5 µM.
With `O=C1C(=O)N(Cc2ccco2)C(c2ccccc2)C1C(=O)c1cccs1` (stereo not given) [1-(2-furanylmethyl)-4-hydroxy-3-[oxo(thiophen-2-yl)methyl]-2-phenyl-2H-pyrrol-5-one] the IC50 was 35.2 µM.
`COc1cc(C2C(C(=O)c3ccc(C)o3)C(=O)C(=O)N2Cc2cccnc2)ccc1O` (stereo not given) [2-(3-methoxy-4-oxidanyl-phenyl)-3-(5-methylfuran-2-yl)carbonyl-4-oxidanyl-1-(pyridin-3-ylmethyl)-2H-pyrrol-5-one] was tested, and the IC50 was greater than 66.7 µM.
`CCOc1ccc(C(=O)C2C(=O)C(=O)N(CC3CCCO3)C2c2ccco2)cc1` (stereo not given) [(4Z)-4-[(4-ethoxyphenyl)-hydroxymethylidene]-5-(2-furanyl)-1-(2-oxolanylmethyl)pyrrolidine-2,3-dione] was tested, and the IC50 was 32 µM.
With `Cc1ccc(C2C(C(=O)c3cnn(-c4ccccc4)c3C)C(=O)C(=O)N2CCN2CCOCC2)o1` (stereo not given) [(4Z)-4-[hydroxy-(5-methyl-1-phenyl-4-pyrazolyl)methylidene]-5-(5-methyl-2-furanyl)-1-[2-(4-morpholinyl)ethyl]pyrrolidine-2,3-dione] the IC50 was 23.2 µM.
In the case of `Cc1ccc(C2c3c([nH]c(=S)[nH]c3=O)N=C3CC(C)(C)CC(=O)C32)cc1` (stereo not given) [8,8-dimethyl-5-(4-methylphenyl)-2-sulfanylidene-5,7,9,10-tetrahydro-1H-pyrimido[4,5-b]quinoline-4,6-dione], the IC50 is reported as 47.9 µM.
`COC(=O)c1[nH]c(C)c(C(=O)C2C(=O)C(=O)N(CCN3CCOCC3)C2c2cccnc2)c1C` (stereo not given) [4-[(E)-hydroxy-[1-[2-(4-morpholinyl)ethyl]-4,5-dioxo-2-(3-pyridinyl)-3-pyrrolidinylidene]methyl]-3,5-dimethyl-1H-pyrrole-2-carboxylic acid methyl ester] gave an IC50 of 20.8 µM.

Reference: BindingDB's records for doi:10.7270/Q2J67FB5 (Nmmlsc, 2007)
